{"source": "patent US11149071B2", "about": "“Fusion protein Slit2D2(C386S)-HSA and use thereof in prevention and/or treatment of lung inflammation” (Asclepius (Suzhou) Technology Company Group Co., Ltd., priority 2017, dated 2021)", "key": {"[1]": {"tested_on": "lipopolysaccharide-induced lung injury", "experiment": "rat model of acute lung injury induced by airway infusion of LPS; differential cell counts in BALF", "type": "in vivo, Wistar rat", "description": "Acute lung injury (ALI) is a systemic uncontrolled inflammatory response caused by various direct and indirect injury factors, accompanied by alveolar epithelial cells and capillary endothelial cell injury, its pathogenesis is still unclear, and there is still no effective treatment means. A rat model with airway infusion of lipopolysaccharide (LPS) is a commonly used animal model. In this study, airway infusion of LPS induced acute lung injury in rats. The animals were injected compounds via tail vein. After four hours, lung lavage and bronchoalveolar lavage fluid were collected, and differential cell were counts and measured to represent the efficacy of test compounds in preventing lipopolysaccharide-induced lung injury.\nExcept for group 1, all other groups were received pulmonary perfusion of lipopolysaccharide. Animals were anesthetized by 3-5% isoflurane, and 100 μl of LPS solution (1 mg/ml) was introduced into rat trachea with a micro-atomizer intubation, and after 4 hours, the animals were killed with chloral hydrate (750 mg/kg). The lungs were gently perfused three times in situ with 4 ml of PBS+1% albumin. After lavage, bronchoalveolar lavage fluid (BALF) was preserved in ice, and then the number of eosinophils (EOS), macrophages (Mac), neutrophils (Neu), lymphocytes (Lym) and the total number of cells were measured."}, "[2]": {"tested_on": "mouse models of asthma", "experiment": "mouse models of asthma (ovalbumin sensitization and aerosol challenge); BALF cell counts, Penh, BALF cytokines", "type": "in vivo, BALB/c mice", "description": "On the first day and the 14th day of the experiment, the asthma models were sensitized by intraperitoneal injection, and the asthma group was given sensitization solution containing 20 μg of ovalbumin and 2 mg of alum suspension each time.\n3.3.2 On the days 28, 29 and 30, the mice of 2-4 groups were stimulated with aerosol, which included dissolving 100 mg OVA in 10 ml PBS and adding 5 μl Triton X-100, and atomized by atomizing inhalation facility (Buxco) for 30 minutes, and then the nebulizer was turned off. Finally, the mice were kept in the inhalation box for additional 7 minutes, and following by being taken out. The negative control mice were exposed in aerosolized PBS for 30 minutes.\nGroup 1 (PBS control group) were injected intraperitoneally with PBS at 2 hours before PBS sensitization on the days 28, 29 and 30. Group 2 (OVA control group) were injected intraperitoneally with PBS at 2 hours before OVA sensitization on the days 28, 29 and 30. Group 3 were injected intraperitoneally with ZD018 at 2 hours before OVA sensitization on the days 28, 29 and 30. Group 4 were intragastrically administrated with dexamethasone at 2 hours before OVA sensitization on the days 28, 29 and 30.\nOn the 31st (24 hours after the last challenge), the Penh of mice were detected with a Buxco mouse non-invasive pulmonary function instrument. The change of Penh was determined after atomization stimulating of 300 μl doubling concentration of methacholine (Mch). The stimulating concentrations from low to high were 0, 0.78, 1.56, 3.125, 6.25, 12.5, 25 and 50 g/L, respectively. The mean value of Penh was recorded at each stimulating concentration level of Mch. The Penh value at each stimulating concentration of Mch was converted to a percentage of the Penh value at the time of the stimulating normal saline (The Penh value stimulated by Mch/The Penh value stimulated by normal saline, 100%), and represented by penh %, which was used as an evaluation index for mice airway response.\n3.5 The observation of airway inflammation: the cytological examination of bronchoalveolar lavage and bronchoalveolar lavage fluid (BALF).\n3.6 IL-13 and IL-5 cytokine levels in bronchoalveolar lavage fluid (BALF) were tested with Elisa Kit (R&D, USA)."}, "[3]": {"settings": "test doses of 5 mg/kg, 1 mg/kg and 0.2 mg/kg i.v. 3 hours before LPS perfusion, BALF 4 hours after LPS, compared with the model group (FIG. 4)"}, "[4]": {"settings": "ZD018 1 mg/kg i.p. 2 hours before OVA challenge on days 28, 29 and 30 (FIG. 6)"}}, "data": [{"substance": "Slit2D2(C386S)-HSA: recombinant fusion protein of Slit2 D2 domain (cysteine at position 386 mutated to serine) and HSA, SEQ ID NO: 2", "values": [{"measurement": "efficacy compared with Slit2D2-HSA recombinant protein", "setting": "[1]; both at 5 mg/kg dose i.v. 3 hours before LPS perfusion (FIG. 4)", "value": "superior to Slit2D2-HSA recombinant protein"}, {"measurement": "increase of cell number (total number of cells in BALF)", "setting": "[1]; [3]", "value": "significantly inhibited"}, {"measurement": "number of neutrophils in bronchoalveolar lavage fluid", "setting": "[1]; [3]", "value": "significantly controlled"}, {"measurement": "accumulation of eosinophils in alveolar fluid (BALF)", "setting": "[2]; ZD018 1 mg/kg i.p. 2 hours before OVA challenge on days 28, 29 and 30 (FIG. 5)", "value": "significantly inhibit"}, {"measurement": "accumulation of lymphocytes in alveolar fluid (BALF)", "setting": "[2]; [4]", "value": "inhibit"}, {"measurement": "accumulation of neutrophils in alveolar fluid (BALF)", "setting": "[2]; [4]", "value": "inhibit"}, {"measurement": "IL-5 cytokine level in bronchoalveolar lavage fluid (BALF)", "setting": "[2]; ZD018 1 mg/kg i.p., Elisa Kit (FIG. 8)", "value": "inhibit"}, {"measurement": "IL-13 cytokine level in bronchoalveolar lavage fluid (BALF)", "setting": "[2]; ZD018 1 mg/kg i.p., Elisa Kit (FIG. 9)", "value": "inhibit"}, {"measurement": "enhanced pause (Penh) index stimulated by methacholine (Mch)", "setting": "[2]; ZD018 1 mg/kg i.p., day 31, 24 hours after the last challenge, Mch 0-50 g/L, compared with control group G2 (FIG. 7)", "value": "effectively inhibit"}]}]}
